Values after ≈ are worked out from the molar mass of the structure shown. Like-named read-outs stand apart in the source and are kept apart here.
Assays:
[1] = test system: A549 (Lung cancer); test: MTT assay, A549; format: cell-based; conditions: Homo sapiens, read-out: A549 IC50
Procedure: (§1) A431 (Skin cancer), Colo-205 (Colon cancer), A549 (Lung cancer) cell lines were obtained from National Center for Cell science (NCCS), Pune, India. DMEM (Dulbeccos Modified Eagles Medium), MTT [3-(4,5-dimethylthiazol-2-yl)-2,5-diphenyl tetrazolium bromide], Trypsin, EDTA were purchased from Sigma Chemicals Co (St. Louis, Mo.), Fetal bovine serum were purchased from Arrow labs, 96 well flat bottom tissue culture plates were purchased from Tarson.
(§2) A431, Colo-205, A549 cell lines were grown as adherent cells in DMEM media supplemented with 10% fetal bovine serum, 100 μg/ml penicillin, 200 μg/ml streptomycin, 2 mM L-glutamine, and culture was maintained in a humidified atmosphere with 5% CO2. Stock solution of 10 mg/ml was prepared for test molecules in DMSO. From the stock, various dilutions were made with sterile water to get required concentration. A431, Colo-205, A549 cell lines were seeded at a density of 1×10^4 cells (cell number was determined by Trypan blue exclusion dye method) per each well in 100 μl of DMEM supplemented with 10% FBS. 12 hrs after seeding, above media was replaced with fresh DMEM supplemented with 10% FBS. Then, 10 μl sample from above stock solutions were added to each well in triplicates which gives final concentration of 100, 50, 25, 10 μg/well. The above cells were incubated for 48 hrs at 37° C. with 5% CO2. After 48 hrs incubation the above media was replaced with 100 μl of fresh DMEM with out FBS and to this 10 μl of MTT (5 mg dissolved in 1 ml of PBS) was added and incubated for 3 hrs at 37° C. with 5% CO2. After 3 hrs of incubation, the above media was removed with multi channel pipette, then 200 μl of DMSO was added to each well and incubated at 37° C. for 15 min. Finally, the plate was read at 570 nm using spectrophotometer (Spectra Max, Molecular devices).

[2] = test system: crude intestinal α-glucosidase; test: In-vitro mammalian (rat intestinal) α-glucosidase inhibition assay; format: biochemical; conditions: for Mammalian α Glucosidase Inhibition (Mean ± S.E): highest concentration 5 mg/ml
From the text: Chemicals: α-Glucosidase [(EC 3.2.1.20) Type I: from bakers yeast], rat intestinal acetone powder (as a source of crude intestinal α-glucosidase), α-amylase [EC 3.2.1.1) Type VI B: from porcine pancreas], p-nitrophenyl α-D-glucopyranoside, 3,5-dinitro salicylic acid, soluble potato starch and 1-deoxyrojirimycine, were purchased from Sigma Chemical Co., St Louis, Mo., USA. Other chemicals of analytical grade were procured from indigenous manufacturers.
In-vitro a-Glucosidase Inhibition Assay: Yeast and intestinal a-glucosidase inhibitory activities were determined as per reported methods (Babu et al., 2004; Mc Dougall et al., 2005). Rat intestinal acetone powder in normal saline (100% w/v) was sonicated properly and the supernatant was used as a source of crude intestinal a-glucosidase after centrifugation. In brief, 20 μl, of test samples (100 mg/ml DMSO solution) were reconstituted in 100 μl of 100 mM-Phosphate buffer (pH 6.8) in a 96-well microplate and incubated with 50 μl yeast a-glucosidase (0.76 μ/ml in same buffer) or crude intestinal a-glucosidase for 5 min before 50-μl substrate (5 mM, […] prepared in same buffer) was added. Release of p-nitrophenyol was measured at 405 nm spectrophotometrically (Spectra Mas Plus 384, Molecular Device corporation, Sunnyvale, Calif., USA) 5 min after incubation with substrate, individual blank for test samples were prepared to correct background absorbance where the substrate was replaced with 50 μl of buffer. The control sample contained 20 μl DMSO in place of test samples. The percentage of enzyme inhibition was calculated as (A−B/A)×100 where A is represents the absorbance of the control without test samples, and B represents the absorbance in the presence of test samples. […] The IC50 values were calculated by applying logarithmic regression analysis from the mean inhibitory values.

[3] = test system: Colo-205 (Colon cancer); test: MTT assay, Colo-205; format: cell-based; conditions: for IC50: Homo sapiens, read-out: Colo-205 IC50
Procedure: as §1, §2

[4] = test system: Wistar rats; test: Carrageenan induced paw edema model; format: in vivo, rat; conditions: for change in vivo at 100 mg/kg / inhibition in vivo at 100 mg/kg: Rattus norvegicus; for change in vivo at 100 mg/kg: read-out: % Increase in Paw Volume; for inhibition in vivo at 100 mg/kg: read-out: % Inhibition (paw volume)
Procedure: Male Albino Wistar rats of 150-180 grams were used for the experiments.
Anti-inflammatory activity of test compounds was evaluated in Wistar rats employing the method of Winter et al (1963) and Diwan et al (1989). Male Wistar rats were used for the study. […] The different test compounds were administered to the animals in the test group at the dose of 100 mg/kg, by oral route. Animals in the standard group received Indomethacin at the dose of 10 mg/kg, by oral route. All test and standard compounds were administered as 1% gum acacia suspension. Rats in the control group received the vehicle solution without drugs. One hour after test drugs administration, rats in all the groups were challenged with 0.1 ml of 1% Carrageenan in the sub plantar region of right hind paw. A zero hour paw volume was measured for all the rats using digital plethysmometer (Ugo Basile, Italy) before the administration of carrageenan for all groups. Paw volumes were again measured 3 hrs after the challenge of Carrageenan. The percent inhibition of paw volume for each rat in treated groups was calculated by comparing with mean paw volume of control group and expressed as mean (±SE) percent inhibition of paw volume for each test. In a preliminary study the compounds that have shown good activity were evaluated for dose response study by using above procedure.

[5] = test system: A431 (Skin cancer) cell lines; test: MTT assay, A431; format: cell-based; conditions: Homo sapiens, read-out: A431 cell lines IC50
Procedure: as §1, §2

[6] = test compounds 100 mg/kg oral, Indomethacin 10 mg/kg oral, 3 hrs after Carrageenan
[7] = 50 mg/kg oral, dose response study, n=6
[8] = 100 mg/kg oral, dose response study, n=6
[9] = 200 mg/kg oral, dose response study, n=6

| SMILES | IC50 ([1]; A549, MTT, 48 hrs) | Mammalian α-glucosidase inhibitory activity (in words) [2] | Mammalian α Glucosidase Inhibition (Mean ± S.E) [2] | IC50 ([5]; A-431, MTT, 48 hrs) | IC50 ([3]; COLO 205, MTT, 48 hrs) | change in vivo at 100 mg/kg [4, 6] | inhibition in vivo at 100 mg/kg [4, 6] | other results |
| --- | --- | --- | --- | --- | --- | --- | --- | --- |
| Cc1sc2nc3c(c(N)c2c1C)CCCC3 [BN-2, 2,3-dimethyl-5,6,7,8-tetrahydrothieno[2,3-b]quinolin-4-amine] | 50.1 µg/mL (≈ 216 µM) | moderate inhibitory activity | 40.0 ± 2.5% | 31.6 µg/mL (≈ 136 µM) | 117 µg/mL (≈ 504 µM) | 83.1 ± 2.66% | 20.6 ± 2.05% | – |
| Nc1c2c(nc3sc4c(c13)CCC4)CCCCC2 [BN-16, 1,2,3,6,7,8,9,10-Octahydrocyclohepta[b]cyclopenta[4,5]thieno[3,2-e]pyridine-11-amine] | 39.8 µg/mL (≈ 154 µM) | – | 4.46 ± 1.77% | 63 µg/mL (≈ 244 µM) | 123 µg/mL (≈ 476 µM) | 61.1 ± 19.2% | 44.9 ± 5.86% | % Inhibition [4, 7]: 20.47 ± 1.61%; Percentage Swelling (50 mg/kg) [4, 7]: 73.18 ± 2.41 %; % Inhibition [4, 8]: 44.90 ± 5.86%; Percentage Swelling (100 mg/kg) [4, 8]: 61.09 ± 5.86 %; % Inhibition [4, 9]: 56.0 ± 2.87%; Percentage Swelling (200 mg/kg) [4, 9]: 45.60 ± 5.30 %; % Inhibition ([4]; 200 mg/kg oral, dose response study, n=6, listed as B-16): 57.53% |
| Nc1c2c(nc3sc4c(c13)CCCC4)CCCCC2 [BN-8, 2,3,4,7,8,9,10,11-Octahydro-1H-benzo[4,5]thieno[2,3-b]cyclohepta [e]pyridin-12-amine] | – | – | 10.76 ± 0.92% | – | – | – | – | IC50 ([1]; A549, 48 h): 186 µg/mL (≈ 683 µM); IC50 ([3]; COLO 205, 48 h): 70.8 µg/mL (≈ 260 µM); change in vivo at 100 mg/kg ([4]; po, 3 h): 109 ± 4.87%; inhibition in vivo at 100 mg/kg ([4]; po, 3 h): 1.2 ± 0.87%; IC50 ([5]; A-431, 48 h): 51.1 µg/mL (≈ 188 µM) |
| COc1ccc2c(c1)c(CC(=O)O)c(C)n2C(=O)c1ccc(Cl)cc1 [Indomethacin, reference compound] | – | – | – | – | – | 41.7 ± 9.97% | 50.1 ± 12.1% | – |
| Cc1sc2nc3c(c(N)c2c1C)CCC3 [BN-1, 2,3-dimethyl-6,7-dihydro-5H-cyclopenta[b]thieno[3,2-e]pyridin-4-amine] | 190 µg/mL (≈ 870 µM) | – | 0.0 ± 0.0% | 45.7 µg/mL (≈ 209 µM) | 245 µg/mL (≈ 1120 µM) | 87.9 ± 2.78% | 24.7 ± 5.49% | – |

Continued, in another order:

| IC50 ([1]; A549, MTT, 48 hrs) | Mammalian α-glucosidase inhibitory activity (in words) [2] | Mammalian α Glucosidase Inhibition (Mean ± S.E) [2] | IC50 ([5]; A-431, MTT, 48 hrs) | SMILES | IC50 ([3]; COLO 205, MTT, 48 hrs) | change in vivo at 100 mg/kg [4, 6] | inhibition in vivo at 100 mg/kg [4, 6] | other results |
| --- | --- | --- | --- | --- | --- | --- | --- | --- |
| 144 µg/mL (≈ 591 µM) | – | 0.0 ± 0.0% | 141 µg/mL (≈ 577 µM) | Nc1c2c(nc3sc4c(c13)CCCC4)CCC2 [BN-5, 2,3,6,7,8,9-Hexahydro-1H-benzo[4,5]thieno[2,3-b]cyclopenta[e]pyridin-10-amine] | – | 101 ± 2.94% | 4.32 ± 1.19% | Colo-205 IC50 ([3]; MTT, 48 hrs): No activity |
| 72.4 µg/mL (≈ 280 µM) | significant inhibitory activity | 88.87% | 40.7 µg/mL (≈ 158 µM) | CC1CCc2c(nc3sc4c(c3c2N)CCC4)C1 (stereo not drawn) [BN-15, 7-Methyl-2,3,6,7,8,9-hexahydro-1H-cyclopenta[4,5]thieno[2,3-b]quinolin-10-amine] | – | 86.5 ± 17.1% | 23.5 ± 8.98% | Mammalian α-glucosidase inhibition (Mean ± S.E) ([2]; 0.039063 mg/ml): 11.85 ± 3.45%; Mammalian α-glucosidase inhibition (Mean ± S.E) ([2]; 0.078125 mg/ml): 31.57 ± 2.74%; Mammalian α-glucosidase inhibition (Mean ± S.E) ([2]; 0.15625 mg/ml): 40.72 ± 2.26%; Mammalian α-glucosidase inhibition (Mean ± S.E) ([2]; 0.3125 mg/ml): 52.37 ± 1.64%; Mammalian α-glucosidase inhibition (Mean ± S.E) ([2]; 0.625 mg/ml): 61.83 ± 0.26%; Mammalian α-glucosidase inhibition (Mean ± S.E) ([2]; 1.25 mg/ml): 78.49 ± 1.88%; Mammalian α-glucosidase inhibition (Mean ± S.E) ([2]; 2.5 mg/ml): 83.34 ± 3.13%; Mammalian α-glucosidase inhibition (Mean ± S.E) ([2]; 5 mg/ml): 88.87 ± 1.35%; IC50 ([2]; mammalian α-glucosidase, dose response study): 299 µg/mL (≈ 1160 µM); Colo-205 IC50 ([3]; MTT, 48 hrs): No activity |
| 39.8 µg/mL (≈ 154 µM) | moderate inhibitory activity | 46.22 ± 4.15% | 53.7 µg/mL (≈ 208 µM) | Nc1c2c(nc3sc4c(c13)CCCCC4)CCC2 [BN-18, 1,2,3,6,7,8,9,10-Octahydrocyclohepta[4,5] thieno[2,3-b]cyclopenta [e]pyridin-11-amine] | 47.8 µg/mL (≈ 185 µM) | 62.8 ± 2% | 17.4 ± 0.27% | – |

Reference: patent US20110269790A1, “NOVEL THIENOPYRIDINES AS PHARMACOLOGICALLY ACTIVE AGENTS” (priority 2009, published 2011)
